The values below come from ChEMBL document CHEMBL2046272, “Ligand Promiscuity between the Efflux Pumps Human P-Glycoprotein and S. aureus NorA” (ACS Med Chem Lett, 2012).

The structures appear in SMILES notation. In brackets after ≈: the same amount, converted by molar mass.

The inhibition is the drop in the measured response relative to a control, in per cent.

The target of data set [1] is T1, MDR1 (P-glycoprotein, ABCB1) (Homo sapiens, UniProt P08183). The data set is described as follows: in vitro.
Description: Inhibition of human recombinant MDR1 expressed in mouse L5178Y cells assessed as inhibition of rhodamine-123 efflux at 10^-4 M preincubated for 10 mins measured after 20 mins by FACS analysis
For data set [2], the target named is T2, Quinolone resistance protein NorA (Staphylococcus aureus) (UniProt P0A0J7).
T2 sequence (whole entry): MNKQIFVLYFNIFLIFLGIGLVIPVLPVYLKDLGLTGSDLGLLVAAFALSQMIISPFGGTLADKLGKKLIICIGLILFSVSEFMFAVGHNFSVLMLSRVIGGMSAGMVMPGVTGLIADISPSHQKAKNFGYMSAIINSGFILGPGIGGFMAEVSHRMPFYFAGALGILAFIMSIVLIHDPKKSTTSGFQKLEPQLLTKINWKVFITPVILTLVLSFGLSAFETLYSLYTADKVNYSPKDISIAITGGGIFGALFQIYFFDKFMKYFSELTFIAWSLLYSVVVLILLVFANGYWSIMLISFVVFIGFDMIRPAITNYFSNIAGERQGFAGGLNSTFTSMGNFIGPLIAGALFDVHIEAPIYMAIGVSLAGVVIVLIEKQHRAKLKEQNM
The conditions noted are these: SA-1199B, at 50 µM.
Description: Inhibition of norA-mediated ethidium bromide efflux in Staphylococcus aureus SA-1199B harboring grlA A116E mutant at 50 uM after 5 mins by fluorometric analysis

Data set [3] deals with T1, MDR1 (P-glycoprotein, ABCB1). The data set is described as follows: Inhibition of human recombinant MDR1 expressed in mouse L5178Y cells assessed as inhibition of rhodamine-123 efflux at 10^-5 M preincubated for 10 mins measured after 20 mins by FACS analysis. It is filed as cell-based. The conditions noted are these: mouse L5178Y cells expressing human recombinant MDR1, probe rhodamine-123.

The test system of data set [4] is Staphylococcus aureus. In words: microbe, parasite or virus in culture. The conditions noted are these: SA-1199B. It counts as functional.
Description: Antibacterial activity against Staphylococcus aureus SA-1199B harboring grlA A116E mutant by microdilution techniques
Setting [5] is: mouse L5178Y cells expressing human recombinant MDR1, probe rhodamine-123.

As for `CCOc1cc(CC(=O)N[C@@H](CC(C)C)c2ccccc2N2CCCCC2)ccc1C(=O)O` [REPAGLINIDE], in data set [1] (setting [5]), the inhibition at 20 min, 100 µM was 35%. Further, the inhibition in data set [2] amounted to 14%. `CCC(C)N1C(=O)S/C(=C\c2ccc(N3CCCC3)o2)C1=O` (configuration not stated): the inhibition at 20 min, 100 µM in data set [1] (setting [5]) was found to be 11.3%.

Turning to `Cc1ccc(S(=O)(=O)Nc2ccc3c(c2)ncn3-c2ccccc2)cc1`, the inhibition at 20 min, 100 µM in data set [1] (setting [5]) was 2.3%. Turning to `CC[C@H](C)N1C(=O)S/C(=C/c2ccc(-c3cc(C(=O)O)ccc3Cl)o2)C1=O`, the inhibition at 20 min, 10 µM in data set [3] came to 0.7%. As for `CCC(C)N1C(=O)S/C(=C\c2ccc(-c3cc(C(=O)O)ccc3Cl)o2)C1=O` (configuration not stated), the inhibition at 20 min, 10 µM in data set [3] came to 1.7%. Turning to `CCCOc1ccc(-c2cc(=O)c3ccccc3n2C)cc1`, the inhibition at 20 min, 100 µM in data set [1] (setting [5]) is 1.9%. Consider `COc1ccc(CCN2CCC(Nc3nc4ccccc4n3Cc3ccc(F)cc3)CC2)cc1` [ASTEMIZOLE], for which the inhibition at 20 min, 10 µM in data set [3] was found to be 12.8%. The same molecule had an MIC in data set [4] of 100 µg/mL (≈ 218 µM). The molecule also displayed an inhibition in data set [2] of 80.6%. Consider `CCN(CC)CCOc1ccc(-c2cc(=O)c3ccccc3n2C)cc1`, for which, in data set [3], the inhibition at 20 min, 10 µM is 2.6%.

On to `CC(C)(C)c1ccc(C(=O)CCCN2CCC(OC(c3ccccc3)c3ccccc3)CC2)cc1` [EBASTINE], for which, in data set [4], the MIC is more than 100 µg/mL. This molecule displayed an inhibition in data set [2] of 88.3%. With `CCOC(=O)C1=C(COCCN)NC(C)=C(C(=O)OC)C1c1ccccc1Cl` (configuration not stated) [AMLODIPINE], the inhibition at 20 min, 10 µM in data set [3] amounted to 52.8%. Further, the inhibition in data set [2] turned out to be 60.6%. With `C=C[C@H]1CN2CC[C@H]1C[C@@H]2[C@@H](O)c1ccnc2ccc(OC)cc12`, the inhibition in data set [2] stood at 31.5%. Regarding `CCOC(=O)c1cn(C2CC2)c2cc(N3CCC4=C(C3)/C(=N/OC)C(C)CS4)c(N)cc2c1=O` (configuration not stated), the inhibition at 20 min, 100 µM in data set [1] (setting [5]) turned out to be 16.8%. Turning to `O=C1NCCN1CCN1CCC(c2cn(-c3ccc(F)cc3)c3ccc(Cl)cc23)CC1` [SERTINDOLE], in data set [4], the MIC came to 25 µg/mL (≈ 56.7 µM). Also, in data set [1] (setting [5]), the inhibition at 20 min, 100 µM stood at 74%. In data set [2], the inhibition was determined as 81.8%. Take `c1ccc(CCN(Cc2ccccc2)Cc2cccc(OCc3ccccc3)c2)cc1`: the inhibition at 20 min, 100 µM in data set [1] (setting [5]) turned out to be 2.2%. On the same count and under the same terms, in the case of `Cn1cccc1-c1nc2cc(NC(=O)c3ccccc3)ccc2[nH]1` it was 1.6%; in that of `CN(C)CCOc1ccc(-c2cc(=O)c3ccccc3n2C)cc1`, 3.2%. With `N#Cc1c(C(F)(F)F)cc(Cc2ccccc2)nc1SCc1ccc(C(=O)O)cc1`, in data set [1] (setting [5]), the inhibition at 20 min, 100 µM is 2.6%. Turning to `O=C1Cc2cc(CCN3CCN(c4nsc5ccccc45)CC3)c(Cl)cc2N1` [ZIPRASIDONE], in data set [4], the MIC was more than 100 µg/mL. For the same molecule, in data set [1] (setting [5]), the inhibition at 20 min, 100 µM was 19%. The same molecule had an inhibition in data set [2] of 86.6%. As to `COc1cc(C2=Nc3ccccc3SC2)cc(OC)c1OC`, in data set [1] (setting [5]), the inhibition at 20 min, 100 µM amounted to 64.7%. Regarding `Cc1ccc(S(=O)(=O)Nc2ccc3c(c2)nc(C)n3Cc2ccccc2)cc1`, the inhibition at 20 min, 100 µM in data set [1] (setting [5]) came out at 21.7%. In data set [4], `O=C1CCc2ccc(OCCCCN3CCN(c4cccc(Cl)c4Cl)CC3)cc2N1` [ARIPIPRAZOLE] had an MIC of more than 100 µg/mL. The inhibition at 20 min, 100 µM in data set [1] (setting [5]) was 99%. Also, the inhibition in data set [2] came out at 92.3%.

As for `COc1cccc(CNC(C)C(O)c2ccccc2)c1` (configuration not stated), the inhibition at 20 min, 100 µM in data set [1] (setting [5]) turned out to be 2.1%. Regarding `Cc1ccc(S(=O)(=O)Nc2ccc3nc(-c4cccn4C)[nH]c3c2)cc1`, the inhibition at 20 min, 100 µM in data set [1] (setting [5]) worked out at 4.3%. Take `CCOC(=O)c1cn(C2CC2)c2cc(N3CCC4=C(C3)/C(=N/O)C(C)CS4)c(N)cc2c1=O` (configuration not stated): in data set [1] (setting [5]), the inhibition at 20 min, 100 µM was determined as 40.6%. For `CC[C@H]1CCc2nc(SCc3ccc(C(=O)O)cc3)c(C#N)c(C(F)(F)F)c2C1`, in data set [3], the inhibition at 20 min, 10 µM was determined as 0.6%.

Turning to `COc1ccc(C2=Nc3ccccc3SC2)cc1OC`, the inhibition at 20 min, 100 µM in data set [1] (setting [5]) is 44.1%.

Take `O=C1NC(=O)/C(=C/c2ccc(-c3cc(C(=O)O)ccc3Cl)o2)S1`: in data set [1] (setting [5]), the inhibition at 20 min, 100 µM was determined as 2.6%. The molecule `C=C[C@H]1C[N@@]2CC[C@H]1C[C@@H]2[C@@H](O)c1ccnc2ccc(OC)cc12` [QUINIDINE] had an inhibition at 20 min, 100 µM in data set [1] (l5178y) of 21.1%.

Consider `CN(C)C(=O)C(CCN1CCC(O)(c2ccc(Cl)cc2)CC1)(c1ccccc1)c1ccccc1` [LOPERAMIDE], for which, in data set [3], the inhibition at 20 min, 10 µM amounted to 4.5%. The same molecule gave an MIC in data set [4] of more than 100 µg/mL. The molecule further yielded an inhibition in data set [2] of 77.7%. `CCN(CC)CCCN(c1ccccc1)C1Cc2ccccc2C1` [APRINDINE]: the inhibition at 20 min, 100 µM in data set [1] (setting [5]) was 16%. Also, the inhibition in data set [2] amounted to 51.6%.

For the molecule `N#Cc1c(SCc2ccc(Cl)nc2)nc2c(c1C(F)(F)F)CCCC2`, in data set [1] (setting [5]), the inhibition at 20 min, 100 µM came out at 20.4%.

Turning to `C[C@@H](NCc1cccc(OCc2ccccc2)c1)[C@@H](O)c1ccccc1`, the inhibition at 20 min, 10 µM in data set [3] amounted to 7.8%. With `C=CCc1ccccc1OCC(O)CNC(C)C` (configuration not stated) [ALPRENOLOL], in data set [1] (setting [5]), the inhibition at 20 min, 100 µM was 5%.
